According to patent US10500223B2, “Therapeutic agent for myotonic dystrophy” (Osaka University, priority 2015, dated 2019):
Several values for one entry are separate records, joined by “and”; a condition that tells them apart may be missing. Identical values can stand only once.

Legend:
[1] = system: skeletal muscle chloride channel (Clcn1) gene splicing; assay: Aberrant splicing of Clcn1 gene in quadriceps femoris muscle of MyD model mice, high-dose oral erythromycin; type: in vivo, mouse; settings: HSA^LR mice, 300, 600, 900 mg/kg gavage once daily for 5 days
Experimental: High-dose erythromycin was orally administered to MyD model mice, and its effect on aberrant splicing of the skeletal muscle chloride channel (Clcn1) gene in the quadriceps femoris muscle was examined. The same MyD model mice (HSA^LR mice) and wild-type mice as in Example 3 were used. The erythromycin used was “Erythrocin (registered trademark) dry syrup […]% (erythromycin ethylsuccinate dry syrup)” (Abbott). This product was dissolved at 100 mg/mL in purified water before use. The animals were divided into five groups: an erythromycin 300 mg/kg administration MyD group, an erythromycin 600 mg/kg administration MyD group, an erythromycin 900 mg/kg administration MyD group, a physiological saline administration MyD group and a control (wild-type mice) group (n=3 per group). The administration was gavage administration and performed once daily for five consecutive days. On the day of the final administration, the quadriceps femoris muscle was dissected from each mouse. In the same manner as in Example 3, RT-PCR was performed, the normally spliced product and the aberrantly spliced product were separately quantified, and the percentage of the normal product in the total RT-PCR product was calculated. Statistical analysis was performed using t-test.

HSA^LR mice [2] = assay: Muscle contraction (myotonia) by needle electromyography in MyD model mice, intraperitoneal erythromycin; type: in vivo, mouse; settings: 150 mg/kg intraperitoneal once daily for 8 days, quadriceps femoris muscle, 24 h after final administration, n=3
Experimental: The animals were divided into three groups: an erythromycin administration MyD group, a physiological saline administration MyD group and a control (wild-type mice) group (n=3 (1 male, 2 females) per group). The dose of erythromycin was 150 mg/kg, and this dose was repeatedly administered once daily for 8 days. The physiological saline administration MyD group was repeatedly given physiological saline once daily for 8 days. Nothing was administered to the control (wild-type mice) group.
Twenty-four hours after the final administration, needle electromyography was performed in the quadriceps femoris muscle in the mice under anesthesia to record myotonic discharge. […]

[3] = system: skeletal muscle chloride channel (Clcn1) gene splicing; assay: Aberrant splicing of Clcn1 gene in quadriceps femoris muscle of MyD model mice, intraperitoneal erythromycin; type: in vivo, mouse; settings: HSA^LR mice, 150 mg/kg intraperitoneal once daily for 8 days, vs physiological saline MyD group
Text: Erythromycin was intraperitoneally administered to MyD model mice, and its effects on muscle contraction in the quadriceps femoris muscle and on aberrant splicing of the skeletal muscle chloride channel (Clcn1) gene in the quadriceps femoris muscle were examined. The MyD model mice used were HSA^LR mice, which were kindly provided by Dr. Charles Thornton (University of Rochester) and bred in the laboratory animal facility of Osaka University. The HSA^LR mice are transgenic animals prepared by genomic integration of a hACTA gene (human gene constitutively expressed in myocytes) containing 3′-terminal CTG repeats expanded to 220, and manifest the symptoms of MyD upon the expression of mRNA with expanded CUG repeats in the myocytes (Science, 2000, 289 (5485), 1769-73). As a control, wild-type mice (FVB/NJcl mice, purchased from CLEA Japan) were used. Male and female mice aged 8 weeks were used for the experiment. The erythromycin used was “Erythrocin (registered trademark) for intravenous injection 500 mg (erythromycin lactobionate for injection)” (Abbott). This product was dissolved at 50 mg/mL in physiological saline before use. […] The normal PCR product and the aberrant PCR product were separately quantified with an image analyzer (Typhoon 9410, GE), and the percentage of the normal product in the total RT-PCR product was calculated. […]

[4] = system: skeletal muscle chloride channel (Clcn1) gene splicing; assay: Aberrant splicing of Clcn1 gene in quadriceps femoris muscle of MyD model mice, usual-dose oral erythromycin; type: in vivo, mouse; settings: HSA^LR mice, 50 mg/kg gavage once daily for 21 days, vs physiological saline MyD group
Experimental: Usual-dose erythromycin was orally administered to MyD model mice, and its effects on muscle contraction in the quadriceps femoris muscle and on aberrant splicing of the skeletal muscle chloride channel (Clcn1) gene in the quadriceps femoris muscle were examined. The same MyD model mice (HSA^LR mice) and wild-type mice as in Example 3 were used. As with the case in Example 4, “Erythrocin (registered trademark) dry syrup […]% (erythromycin ethylsuccinate dry syrup)” (Abbott) was dissolved at 100 mg/mL in purified water before use. The animals were divided into three groups: an erythromycin 50 mg/kg administration MyD group, a physiological saline administration MyD group and a control (wild-type mice) group (n=3 per group). The administration was gavage administration and performed once daily for 21 consecutive days. On the day of the final administration, the quadriceps femoris muscle was dissected from each mouse. In the same manner as in Example 3, RT-PCR was performed, and the normally spliced product and the aberrantly spliced product were separately quantified. Statistical analysis was performed using t-test.

[5] = system: Atp2a1 gene exon 22 splicing; assay: Aberrant splicing of Atp2a1 exon 22 in MyD model cells (RT-PCR); type: cell-based, mouse; settings: C2C12-DMPK800R cells, erythromycin 25 or 50 μM, 72 hours
Experimental: The MyD model cells were treated with erythromycin, and whether erythromycin would correct aberrant splicing in exon 22 of the Atp2a1 gene was examined. The same MyD model cells as in Example 1 (C2C12-DMP[…]) were used. The same erythromycin as in Example 1 was used. To the medium of the MyD model cells, erythromycin was added at 0, 25 or 50 μM, and after 72 hours, the total RNA was extracted using RNeasy Mini Plus Kit (trade name, Qiagen). As a control, normal C2C12 cells were cultured in a medium without erythromycin, and the total RNA was similarly extracted. For RT-PCR, SuperScript III First-Strand Synthesis System (Invitrogen) was used to prepare cDNA, and after treatment with RNase H, the segment of interest was amplified using the Atp2a1 exon 22 RT primers shown below. The RT-PCR product was electrophoresed on a 2% agarose gel and then stained using GelRed. The normal PCR product and the aberrant PCR product were separately quantified with an image analyzer (Typhoon 9410, GE). Atp2a1 exon 22 RT primers

C2C12-DMPK800R cells = assay: RNA foci formation in MyD model cells (FISH); type: cell-based, mouse; settings: erythromycin 25 or 50 μM, 72 hours, vs medium without erythromycin
Experimental: MyD model cells were treated with erythromycin, and the number of RNA foci was measured by the FISH (fluorescence in situ hybridization) method.
The MyD cell model used was cells established by transfection of a DMPK gene containing 800 CTG repeats into C2C12 cells (C2C12-DMPK800R, Nucleic Acids Research, 2014, 42 (10), 6591-6602). The establishment of the C2C12-DMPK800 cells was performed in the following procedure. Both a plasmid (pLC16) with a DMPK gene sequence containing 800 CTG repeats in the 3′-untranslated region and a plasmid expressing PhiC31 integrase were transfected into the C2C12 mouse myoblast cell line using Nucleofector (trade name, Lonza), and stably expressing cells were selected using a selection medium with puromycin. Next, a plasmid expressing Cre recombinase was transfected into the stably expressing cells, and a clone in which the transcription of 800 CUG had been activated was selected using a selection medium with hygromycin. […]
The MyD model cells were cultured in DMEM medium supplemented with 10% FBS and penicillin/streptomycin under the conditions of 37° C. and 5% CO2. […] After mounting in Vectashield with DAPI (trade name, Vector Laboratories), the number of RNA foci in the nucleus was counted with a fluorescence microscope (Keyence PZ-9000).

HSA^LR mice [6] = assay: Muscle contraction (myotonia) by needle electromyography in MyD model mice, usual-dose oral erythromycin; type: in vivo, mouse; settings: 50 mg/kg gavage once daily for 21 days, quadriceps femoris muscle, n=3
Experimental: Usual-dose erythromycin was orally administered to MyD model mice, and its effects on muscle contraction in the quadriceps femoris muscle and on aberrant splicing of the skeletal muscle chloride channel (Clcn1) gene in the quadriceps femoris muscle were examined. The same MyD model mice (HSA^LR mice) and wild-type mice as in Example 3 were used. As with the case in Example 4, “Erythrocin (registered trademark) dry syrup […]% (erythromycin ethylsuccinate dry syrup)” (Abbott) was dissolved at 100 mg/mL in purified water before use. The animals were divided into three groups: an erythromycin 50 mg/kg administration MyD group, a physiological saline administration MyD group and a control (wild-type mice) group (n=3 per group). The administration was gavage administration and performed once daily for 21 consecutive days. On the day of the final administration, needle electromyography was performed in the quadriceps femoris muscle in the mice under anesthesia to record myotonic discharge.

CC[C@H]1OC(=O)[C@H](C)[C@@H](O[C@H]2C[C@@](C)(OC)[C@@H](O)[C@H](C)O2)[C@H](C)[C@@H](O[C@@H]2O[C@H](C)C[C@H](N(C)C)[C@H]2O)[C@](C)(O)C[C@@H](C)C(=O)[C@H](C)[C@@H](O)[C@]1(C)O [erythromycin, (2R,3S,4S,5R,6R,8R,10R,11R,12S,13R)-5-(3,4,6-trideoxy-3-dimethylamino-β-D-xylo-hexopyranosyloxy)-3-(2,6-dideoxy-3-C-methyl-3-O-methyl-α-L-ribo-hexopyranosyloxy)-6,11,12-trihydroxy-2,4,6,8,10,12-hexamethyl-9-oxopentadecan-13-olide]
correction of aberrant splicing of the Clcn1 gene (percentage of normal product) [1]: significantly corrected the aberrant splicing of the Clcn1 gene in a dose dependent manner | severity of muscle contraction (frequency of myotonic discharge), per mouse (HSA^LR mice [2]): 1 (myotonic discharge was observed in less than 50% of the needle insertions.) and no muscle contraction | percentage of the normal product in the total RT-PCR product (Clcn1 exon 7a) [3]: significantly higher percentage of the normal RT-PCR product | percentage of the normal RT-PCR product (Clcn1) [4]: significantly higher percentage of the normal RT-PCR product | percentage of the normal product in the total RT-PCR product (Atp2a1 exon 22) [5]: significantly increased the percentage of the normal product to a level observed in the normal C2C12 cells | percentage of RNA foci positive cells (C2C12-DMPK800R cells): significantly decreased the percentage of RNA foci positive cells in a dose dependent manner | severity of muscle contraction (frequency of myotonic discharge), per mouse (HSA^LR mice [6]): 2 (myotonic discharge was observed in 50% or more and less than 90% of the needle insertions.) and 1 (myotonic discharge was observed in less than 50% of the needle insertions.)
